One block for each molecule: values may come before it. Calls of active or inactive are those of the source.
Key:
[1] = target: T1, Corticotropin-releasing factor receptor 2/Corticotropin-releasing factor-binding protein (Homo sapiens, UniProt P24387+Q13324); assay: activators of CRF receptor 2 with binding protein – uHTS hits, confirmation (AID 602473); format: functional; conditions: read-out: EC50_Mean
T1 sequence (Q13324 whole entry): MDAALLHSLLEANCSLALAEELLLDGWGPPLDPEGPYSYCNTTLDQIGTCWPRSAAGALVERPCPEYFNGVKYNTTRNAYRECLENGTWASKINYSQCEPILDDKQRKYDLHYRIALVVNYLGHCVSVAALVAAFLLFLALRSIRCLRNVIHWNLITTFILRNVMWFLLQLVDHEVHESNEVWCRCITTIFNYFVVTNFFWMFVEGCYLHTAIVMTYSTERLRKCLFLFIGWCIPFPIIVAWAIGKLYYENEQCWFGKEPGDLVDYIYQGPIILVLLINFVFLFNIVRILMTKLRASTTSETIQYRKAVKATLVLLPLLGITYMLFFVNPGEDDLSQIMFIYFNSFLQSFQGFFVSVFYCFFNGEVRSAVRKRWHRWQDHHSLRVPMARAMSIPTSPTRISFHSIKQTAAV
T1 sequence (P24387 whole entry): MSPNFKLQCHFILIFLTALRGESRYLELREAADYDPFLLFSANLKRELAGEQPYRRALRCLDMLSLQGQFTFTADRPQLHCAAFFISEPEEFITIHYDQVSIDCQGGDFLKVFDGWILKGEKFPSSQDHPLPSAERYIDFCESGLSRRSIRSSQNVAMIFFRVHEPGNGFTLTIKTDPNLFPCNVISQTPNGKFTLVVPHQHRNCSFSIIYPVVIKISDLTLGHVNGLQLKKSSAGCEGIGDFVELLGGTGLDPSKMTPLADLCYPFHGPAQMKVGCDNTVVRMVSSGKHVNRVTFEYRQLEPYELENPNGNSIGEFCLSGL

[2] = target: Cytochrome P450 2C9 (Homo sapiens, UniProt P11712)
[3] = target: Cytochrome P450 2C19 (Homo sapiens, UniProt P33261); assay: Cytochrome panel assay with activity outcomes. Panel member name: p450-cyp2c19 Compounds with AC50 equal or less than 10 uM are considered active; format: functional
[4] = target: T1, Corticotropin-releasing factor receptor 2/Corticotropin-releasing factor-binding protein; assay: Dose Response confirmation of uHTS hits for small molecule antagonists of the CRF-binding protein and CRF-R2 receptor complex.; format: functional; conditions: read-out: IC50_Mean
[5] = cells; format: functional, cell-based
[6] = cells; format: functional, cell-based; remark: listed apart in the source
[7] = non-specific 3'UTR reporter inhibition in Clone20-Shn3RL – cell-based, Renilla luciferase, cherry-picked, counter-screen for Shn3 inhibitor project, dose response (AID 624133); format: functional
[8] = reduction of Shn3 3'UTR-driven luciferase in osteoblasts – cell-based, Clone20 osteoblasts, firefly luciferase, cherry-picked, dose response (AID 624132); format: functional;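 note: firefly luciferase luminescence from reporter carrying the Shn3 3'UTR in osteoblasts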
[9] = loss of viability in HepG2 cells – cell-based, CellTiter-Glo, cherry-picked, cytotoxicity control for Shn3 inhibitor project, dose response (AID 624134); format: functional
[10] = general mammalian cell viability loss – inhibitor set, cherry-pick, set 2, cytotoxicity control for miR-122 modulator project, dose response (AID 720697); format: functional, cell-based
[11] = NIH3T3 cell viability loss – ATP luminescence, mouse fibroblasts, counter-screen, dose response (AID 2010); format: functional, cell-based;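 note: cells exposed to compound for about 90 hours before reading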
[12] = Trypanosoma cruzi growth suppression in host cells – NIH3T3 host cells, beta-gal luminescence, confirmation (AID 2044); format: functional, cell-based;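 note: intracellular parasites grown in NIH/3T3 mouse fibroblasts as host cells; luminescent beta-galactosidase reporter signal from transgenic T. cruzi replicating inside host cells; inhibitors lower the luminescence signal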
[13] = general mammalian cell viability loss – activator set, cherry-pick, cytotoxicity control for miR-122 modulator project, dose response (AID 720690); format: functional, cell-based;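 note: HEK293T human cells scored for general mammalian cytotoxicity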
[14] = activation of miR-122 Renilla sensor silencing – cell-based, Huh7 psiCHECK-miR122, Renilla luciferase, cherry-picked, dose response (AID 651956); format: functional;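 note: huh7 hepatoma cells stably carrying a psiCHECK-2 miR-122 sensor plasmid; renilla luciferase signal reporting endogenous miR-122 activity after 48 h compound exposure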
[15] = blockers of bursicon-stimulated LGR2 cAMP reporter – cell-based, HEK293, CRE-luciferase reporter, cherry pick, set 2, dose response (AID 743343); format: functional;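 note: transfected cells were stimulated with diluted bursicon conditioned medium after compound addition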
[16] = toxicity toward HepG2 liver cells – cell-based, plate reader, cherry-pick, antagonist series, cytotoxicity control, dose response (AID 743416); format: functional
[17] = blockade of melanocortin 4 receptor signaling – cell-based, plate reader, cherry pick, counter-screen for LGR2 antagonist project, dose response (AID 743444); format: functional;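 note: transfected HEK 293 cells stimulated with alpha-MSH peptide; potency of inhibitors of the alpha-MSH evoked signal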

Chain of Cytochrome P450 2C9 (P11712 whole entry): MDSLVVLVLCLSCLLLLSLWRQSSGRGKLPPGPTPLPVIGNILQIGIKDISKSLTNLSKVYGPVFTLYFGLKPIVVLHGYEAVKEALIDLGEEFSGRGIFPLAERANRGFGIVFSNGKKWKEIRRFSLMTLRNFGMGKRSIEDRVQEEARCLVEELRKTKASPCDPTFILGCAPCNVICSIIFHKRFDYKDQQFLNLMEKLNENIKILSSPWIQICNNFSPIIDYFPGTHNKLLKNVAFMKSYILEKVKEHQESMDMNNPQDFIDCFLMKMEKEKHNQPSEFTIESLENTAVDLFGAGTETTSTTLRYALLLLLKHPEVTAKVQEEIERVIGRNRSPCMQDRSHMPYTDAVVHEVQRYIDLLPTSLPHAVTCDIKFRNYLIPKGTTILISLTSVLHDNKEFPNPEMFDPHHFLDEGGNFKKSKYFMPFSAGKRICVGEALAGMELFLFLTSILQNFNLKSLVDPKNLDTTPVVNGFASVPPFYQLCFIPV
Chain of Cytochrome P450 2C19 (P33261 whole entry): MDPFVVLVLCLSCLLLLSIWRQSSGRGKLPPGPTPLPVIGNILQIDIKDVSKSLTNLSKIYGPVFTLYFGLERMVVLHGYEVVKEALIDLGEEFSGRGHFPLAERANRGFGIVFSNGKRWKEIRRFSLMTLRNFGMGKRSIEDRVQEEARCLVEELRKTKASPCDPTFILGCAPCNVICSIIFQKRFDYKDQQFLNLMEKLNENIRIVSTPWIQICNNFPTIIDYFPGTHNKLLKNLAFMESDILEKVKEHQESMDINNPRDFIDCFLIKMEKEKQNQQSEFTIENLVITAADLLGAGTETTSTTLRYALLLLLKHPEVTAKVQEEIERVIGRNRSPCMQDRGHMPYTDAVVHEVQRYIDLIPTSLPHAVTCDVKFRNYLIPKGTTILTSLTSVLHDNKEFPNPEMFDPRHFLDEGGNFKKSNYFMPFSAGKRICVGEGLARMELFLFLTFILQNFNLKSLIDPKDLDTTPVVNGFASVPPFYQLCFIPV

- EC50 [1]: > 53 µM (inactive)
- AC50 [2]: inconclusive
- AC50 [3]: inconclusive
- IC50 [4]: > 47.1 µM (inactive)
Structure (SMILES): Cc1cc2nc(C)n(CCCN)c2cc1C.Cl

Structure (SMILES): O=C(CN1CCC(C(=O)c2ccc(Cl)cc2)CC1)Nc1ccc2c(c1)OCCO2
- EC50 [5]: > 350 µM (not active)
- EC50 [6]: > 350 µM (not active)

Structure (SMILES): CCCSCCCNC(=O)c1ccccc1NC(=O)C1=CSCCO1
- EC50 [5]: 297 µM (active)
- EC50 [6]: > 350 µM (not active)

Structure (SMILES): CC(C)CC(N)c1csc(NC(=O)c2cc(C(C)(C)C)nn2Cc2ccccc2)n1 (stereo unspecified)
- AC50 [7]: 20.8 µM (active)
- AC50 [8]: 4.85 µM (active)
- AC50 [9]: 8.75 µM (active)

Structure (SMILES): COc1ccc(CN2CCOC2=O)cc1OC
- AC50 [10]: 9.25 µM (active)

Structure (SMILES): CC1=Nc2nnnn2C(c2cccnc2)/C1=C(\O)OC1CCCCC1 (stereo unspecified)
- AC50 [7]: 3.92 µM (active)
- EC50 [11]: > 60 µM (not active)
- AC50 [8]: 3.23 µM (active)
- EC50 [12]: 1.79 µM (active)
- AC50 [9]: > 70 µM (inactive)

Structure (SMILES): C/C=C/c1ccc([C@H]2[C@@H](CNC(=O)CC)N(Cc3ccccn3)[C@H]2CO)cc1
- AC50 [10]: 0.454 µM (active)

Structure (SMILES): C[C@@H]1CN([C@H](C)CO)S(=O)(=O)c2ccc(C#Cc3ccccc3F)cc2O[C@@H]1CN(C)C(=O)Cc1ccncc1
- AC50 [13]: 32.4 µM (active)
- AC50 [14]: 5.11 µM (active)

Structure (SMILES): C[C@@H]1CCCCO[C@@H](CN(C)Cc2ccc3c(c2)OCO3)[C@H](C)CN([C@H](C)CO)C(=O)c2cc(NC(=O)Nc3ccc(C(F)(F)F)cc3)ccc2O1
- AC50 [13]: 9.09 µM (active)
- AC50 [10]: 8.08 µM (active)
- AC50 [14]: 5.55 µM (active)

Structure (SMILES): C[C@H](CO)N1C[C@H](C)[C@@H](CN(C)Cc2ccc(Oc3ccccc3)cc2)Oc2ncc(-c3cncnc3)cc2C1=O
- AC50 [10]: 0.511 µM (active)
- AC50 [14]: 26 µM (active)

Structure (SMILES): CC(=O)N1CCCC(c2cc(C(=O)Nc3ccccc3)no2)C1 (stereo unspecified)
- AC50 [15]: 2.13 µM (active)
- AC50 [16]: > 52 µM (inactive)
- AC50 [17]: 1.98 µM (active)

Structure (SMILES): COc1ccc(NC(=O)N(C)C[C@H]2Oc3cc(C#CCC(C)C)ccc3S(=O)(=O)N([C@@H](C)CO)C[C@H]2C)cc1
- AC50 [13]: 27 µM (active)
- AC50 [10]: 6.46 µM (active)

Structure (SMILES): CN1C(=O)c2cc(NC(=O)Nc3ccccc3F)ccc2OC[C@@H]2O[C@@H](CC(=O)NCc3ccc(-c4ccccc4)cc3)CC[C@@H]21
- AC50 [13]: 47.9 µM (active)
